Assay results reported in patent publication US5439888A, “Antithrombotic agents” (Eli Lilly and Company, priority 1994, dated 1995).

Legend:
[1] = target: factor Xa; assay: Serine protease selectivity assay (chromogenic substrate), Kass, factor Xa; type: biochemical, human; conditions: equilibrium association constant; substrate N-Benzoyl-Ile-Glu-Gly-Arg-p-nitroanilide
Protocol: [The procedure below names another target; the source says it served here with some conditions changed.] (§1) The assay is carried out by mixing 50 μL buffer (0.03M Tris, 0.15M NaCl ,pH 7.4) with 25 μL of bovine thrombin or human thrombin solution (0.21 mg/mL of thrombostat bovine thrombin, Parke-Davis, or purified human thrombin, Enzyme Research Laboratories, South Bend, Ind., at about 8 NIH units/mL, in the same buffer) and 25 μL of test compound in a solvent (in 50% aqueous methanol, v:v). The 150 μL of an aqueous solution of the chromogenic substrate (at 0.25 mg/mL) are added and the rates of hydrolysis of the substrate are measured by monitoring the reactions at 405 nm for the release of p-nitroaniline. Standard curves are constructed by plotting free thrombin concentration against hydrolysis rate. The hydrolysis rates observed with test compounds are then converted to "free thrombin" values in the respective assays by use of the standard curves. The bound thrombin (bound to test compound) is calculated by subtracting the amount of free thrombin observed in each assay from the known initial amount of thrombin used in the assay. The amount of free inhibitor in each assay is calculated by subtracting the number of moles of bound thrombin from the number of moles of added inhibitor (test compound). […]
(§2) Kass is calculated for a range of concentrations of test compounds and the mean value is reported in units of liter per mole. […]

[2] = target: Trypsin; assay: Serine protease selectivity assay (chromogenic substrate), Kass, trypsin; type: biochemical, bovine; conditions: equilibrium association constant; substrate N-Benzoyl-Phe-Val-Arg-p-nitroanilide
Protocol: [The procedure below names another target; the source says it served here with some conditions changed.] as §1, §2

[3] = target: Bovine Thrombin; assay: Inhibition of thrombin amidase activity (chromogenic substrate), Kass; type: biochemical; conditions: equilibrium association constant, mean over a range of concentrations; substrate N-benzoyl-Phe-Val-Arg-p-nitroanilide
Protocol: as §1
Kass is calculated for a range of concentrations of test compounds and the mean value is reported in units of liter per mole.

[4] = target: Plasmin; assay: Serine protease selectivity assay (chromogenic substrate), Kass, plasmin; type: biochemical, human; conditions: equilibrium association constant; substrate H-D-Val-Leu-Lys-p-nitroanilide
Protocol: [The procedure below names another target; the source says it served here with some conditions changed.] as §1, §2

[5] = test system: t-PA; assay: Serine protease selectivity assay (chromogenic substrate), Kass, t-PA; type: biochemical; conditions: equilibrium association constant; substrate H-D-Ile-Pro-Arg-p-nitroanilide
Protocol: [The procedure below names another target; the source says it served here with some conditions changed.] as §1, §2

Kd [1] [µM]	Kd [2] [µM]	Kd [3] [µM]	Kd [4] [µM]	Structure (SMILES)	Kass t-PA [5]
3330	250	0.909	2000	CN[C@H](Cc1ccccc1)C(=O)N1CCC[C@H]1C(=O)N[C@](C)(C=O)CCCNC(=N)N [Example 1, D-N-methylphenylalanyl-L-prolinyl-L-α-methylarginine aldehyde]	0 × 10^6 (L/mole)
1000	71.4	4.55	1250	C[C@@](C=O)(CCCNC(=N)N)NC(=O)[C@@H]1CCCN1C(=O)[C@@H]1NCCc2ccccc21 [Example 2, D-1-(1,2,3,4-tetrahydroisoquinolinylcarboxyl)-L-prolinyl-L -α-methylarginine aldehyde]	0 × 10^6 (L/mole)
